# Measured values as given in US6737383B1, “Herbicidal oxadiazolidines” (priority 1999, dated 2004).
# What was measured:
# [1] = test system: surinam grass; assay: Test C postemergence surinam grass; assay type: in vivo, Brachiaria decumbens; conditions: 0 to 100 scale, 0 no effect, 100 complete control
# Summary of the method: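 Compounds in a non-phytotoxic solvent with surfactant were sprayed postemergence on greenhouse-grown plants in 60:40 sandy loam/potting mix. After about 14 to 21 days, visual ratings against untreated controls on a 0 (no effect) to 100 (complete control) scale.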
# [2] = test system: arrowleaf sida; assay: Test C postemergence arrowleaf sida; assay type: in vivo, Sida rhombifolia; conditions: 0 to 100 scale, 0 no effect, 100 complete control
# Procedure: (§1) Compounds evaluated in this test were formulated in a non-phytotoxic solvent mixture which included a surfactant and applied to plants that were grown for various periods of time before treatment (postemergence application). A mixture of sandy loam soil and greenhouse potting mix in a 60:40 ratio was used for the postemergence test.
# Plantings of these crops and weed species were adjusted to produce plants of appropriate size for the postemergence test. All plant species were grown using normal greenhouse practices. Crop and weed species include arrowleaf sida (Sida rhombifolia), barnyardgrass (Echinochloa crus-galli), cocklebur (Xanthium strumarium), common ragweed (Ambrosia elatior), corn (Zea mays), cotton (Gossypium hirsutum), eastern black nightshade (Solanum ptycanthum), fall panicum (Panicum dichotomiflorum), field bindweed (Convolvulus arvensis), giant foxtail (Setaria faberii), hairy beggarticks (Bidens pilosa), ivyleaf morningglory (Ipomoea hederacea), johnsongrass (Sorghum halepense), ladysthumb smartweed (Polygonum persicaria), lambsquarters (Chenopodium album), large crabgrass (Digitaria sanguinalis), purple nutsedge (Cyperus rotundus), redroot pigweed (Amaranthus retroflexus), soybean (Glycine max), surinam grass (Brachiaria decumbens), velvetleaf (Abutilon theophrasti) and wild poinsettia (Euphorbia heterophylla).
# Treated plants and untreated controls were maintained in a greenhouse for approximately 14, to 21 days, after which all treated plants were compared to untreated controls and visually evaluated. Plant response ratings, summarized in Table C, were based upon a 0 to 100 scale where 0 was no effect and 100 was complete control. A dash response (−) means no test result.
# [3] = test system: rape; assay: Test E rape; assay type: in vivo, Brassica napus; conditions: Preemergence
# [4] = test system: ivyleaf speedwell; assay: Test E postemergence ivyleaf speedwell; assay type: in vivo, Veronica hederaefolia
# Procedure: as §1, with “in the 1- to 4-leaf stage” for “grown for various periods of time before treatment”
# (§2) Plantings of these crops and weed species were adjusted to produce plants of appropriate size for the postemergence test. All plant species were grown using normal greenhouse practices. Crop and weed species include annual bluegrass (Poa annua), blackgrass (Alopecurus myosuroides), black nightshade (Solanum nigra), chickweed (Stellaria media), common poppy (Papaver rhoeas), deadnettle (Lamium amplexicaule), downy brome (Bromus tectorum), field violet (Viola arvensis), galium (Galium aparine), green foxtail (Setaria viridis), Italian ryegrass (Lolium multiflorum), jointed goatgrass (Aegilops cylindrica), kochia (Kochia scoparia), lambsquarters (Chenopodium album), littleseed canarygrass (Phalaris minor), rape (Brassica napus), redroot pigweed (Amaranthus retroflexus), Russian thistle (Salsola kali), scentless chamomile (Matricaria inodora), spring barley (Hordeum vulgare), sugar beet (Beta vulgaris), sunflower (Helianthus annuus), ivyleaf speedwell (Veronica hederaefolia), spring wheat (Triticum aestivum), winter wheat (Triticum aestivum), wild buckwheat (Polygonum convolvulus), wild mustard (Sinapis arvensis), wild oat (Avena fatua), windgrass (Apera spica-venti) and winter barley (Hordeum vulgare).
# (§3) Treated plants and untreated controls were maintained in a greenhouse for approximately 21 to 28 days, after which all treated plants were compared to untreated controls and visually evaluated. […] A dash response (-) means no test result.
# [5] = test system: galium; assay: Test E galium; assay type: in vivo, Galium aparine; conditions: Postemergence
# Summary of the method: (§4)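 Postemergence: 60:40 sandy loam/greenhouse potting mix, 1- to 4-leaf stage. Formulation: solvent plus surfactant. Assessment: visual comparison with untreated controls at ~21–28 days.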
# [6] = test system: sunflower; assay: Test E sunflower; assay type: in vivo, Helianthus annuus; conditions: Postemergence
# Procedure: as §2, with “Plantings of these crops and weed species were adjusted to produce plants of appropriate size for the postemergence test.” left out
# as §3
# [7] = test system: downy brome; assay: Test E downy brome; assay type: in vivo, Bromus tectorum; conditions: Preemergence
# [8] = test system: windgrass; assay: Test E windgrass; assay type: in vivo, Apera spica-venti; conditions: Preemergence
# [9] = test system: deadnettle; assay: Test E deadnettle; assay type: in vivo, Lamium amplexicaule; conditions: Preemergence
# [10] = test system: scentless chamomile; assay: Test E scentless chamomile; assay type: in vivo, Matricaria inodora; conditions: Postemergence
# Summary of the method: as §4
# [11] = test system: deadnettle; assay: Test E deadnettle; assay type: in vivo, Lamium amplexicaule; conditions: Postemergence
# Summary of the method: as §4
# [12] = test system: common pursiane; assay: Test D common purslane; assay type: in vivo, Portulaca oleracea; conditions: Postemergence, 0 to 100 scale
# [13] = test system: guineagrass; assay: Test D guineagrass; assay type: in vivo, Panicum maximum; conditions: Postemergence, 0 to 100 scale
# [14] = Rate 62 g/ha, 0 to 100 scale, 0 no effect, 100 complete control
# [15] = Rate 125 g/ha, 0 to 100 scale (0 no effect, 100 complete control)
# [16] = Rate 250 g/ha, 0 to 100 scale (0 no effect, 100 complete control)
# [17] = Rate 64 g/ha, 0 no injury, 100 complete control
# [18] = Rate 16 g/ha, 0 no injury, 100 complete control
# [19] = Rate 32 g/ha, 0 no injury, 100 complete control
# [20] = Rate 125 g/ha, 0 no injury, 100 complete control
structure (smiles),measurement,setting,value
CC(C)N(C(=O)n1oc(=O)n(Cc2cccs2)c1=O)c1ccc(F)cc1 [Compound 80],"Plant response rating, Surinam grass",[1]; Rate 140 g/ha,0
same,"Plant response rating, Surinam grass",[1]; Rate 280 g/ha,0
same,"Plant response rating, Surinam grass",[1]; Rate 560 g/ha,0
same,"Plant response rating, Surinam grass",[1]; Rate 1120 g/ha,10
same,Plant response rating Arrowleaf sida,[2]; Rate 140 g/ha,0
same,Plant response rating Arrowleaf sida,[2]; Rate 280 g/ha,5
same,Plant response rating Arrowleaf sida,[2]; Rate 1120 g/ha,30
C=CCn1c(=O)on(C(=O)N(c2ccccc2)C(C)C)c1=O [Compound 93],"Plant response rating, Rape",[3]; [14],0
same,"Plant response rating, Rape",[3]; [15],0
same,"Plant response rating, Rape","[3]; Rate 250 g/ha, 0 to 100 scale",10
same,"Plant response rating, Surinam grass",[1]; Rate 140 g/ha,0
same,"Plant response rating, Surinam grass",[1]; Rate 280 g/ha,45
same,"Plant response rating, Surinam grass",[1]; Rate 560 g/ha,50
same,"Plant response rating, Surinam grass",[1]; Rate 1120 g/ha,85
same,Plant response rating Arrowleaf sida,[2]; Rate 280 g/ha,10
same,Plant response rating Arrowleaf sida,[2]; Rate 560 g/ha,60
same,Plant response rating Arrowleaf sida,[2]; Rate 1120 g/ha,60
same,"Plant response rating, Veronica hedera","[4]; Rate 62 g/ha, 0 to 100 scale",0
same,"Plant response rating, Veronica hedera","[4]; Rate 125 g/ha, 0 to 100 scale",0
same,"Plant response rating, Veronica hedera",[4]; [16],0
same,"Plant response rating, Galium","[5]; Rate 62 g/ha, 0 to 100 scale",0
same,"Plant response rating, Galium","[5]; Rate 125 g/ha, 0 to 100 scale",0
same,"Plant response rating, Galium",[5]; [16],0
same,"Plant response rating, Sunflower","[6]; Rate 62 g/ha, 0 to 100 scale",0
same,"Plant response rating, Sunflower","[6]; Rate 125 g/ha, 0 to 100 scale",0
same,"Plant response rating, Sunflower",[6]; [16],0
same,"Plant response rating, Downy brome",[7]; [14],40
same,"Plant response rating, Downy brome",[7]; [15],60
same,"Plant response rating, Downy brome","[7]; Rate 250 g/ha, 0 to 100 scale",20
same,"Plant response rating, Windgrass",[8]; [14],100
same,"Plant response rating, Windgrass",[8]; [15],100
same,"Plant response rating, Deadnettle",[9]; [14],10
same,"Plant response rating, Deadnettle",[9]; [15],10
same,"Plant response rating, Deadnettle","[9]; Rate 250 g/ha, 0 to 100 scale",85
same,"Plant response rating, Scentless chamo","[10]; Rate 62 g/ha, 0 to 100 scale",0
same,"Plant response rating, Scentless chamo","[10]; Rate 125 g/ha, 0 to 100 scale",0
same,"Plant response rating, Scentless chamo",[10]; [16],0
same,"Plant response rating, Deadnettle","[11]; Rate 62 g/ha, 0 to 100 scale",0
same,"Plant response rating, Deadnettle","[11]; Rate 125 g/ha, 0 to 100 scale",0
same,"Plant response rating, Deadnettle",[11]; [16],0
CC(C)N(C(=O)n1oc(=O)n(Cc2cccs2)c1=O)c1ccccc1 [Compound 103],"Plant response rating, Surinam grass",[1]; Rate 140 g/ha,0
same,"Plant response rating, Surinam grass",[1]; Rate 280 g/ha,0
same,"Plant response rating, Surinam grass",[1]; Rate 560 g/ha,0
same,"Plant response rating, Surinam grass",[1]; Rate 1120 g/ha,5
same,Plant response rating Arrowleaf sida,[2]; Rate 140 g/ha,0
same,Plant response rating Arrowleaf sida,[2]; Rate 280 g/ha,0
same,Plant response rating Arrowleaf sida,[2]; Rate 560 g/ha,0
CCn1c(=O)on(C(=O)N(c2ccc(Cl)cc2)C(C)C)c1=O [Compound 108],"Plant response rating, Rape",[3]; [14],40
same,"Plant response rating, Rape",[3]; [15],60
same,"Plant response rating, Rape","[3]; Rate 250 g/ha, 0 to 100 scale",50
same,"Plant response rating, Veronica hedera","[4]; Rate 62 g/ha, 0 to 100 scale",0
same,"Plant response rating, Veronica hedera","[4]; Rate 125 g/ha, 0 to 100 scale",10
same,"Plant response rating, Veronica hedera",[4]; [16],40
same,"Plant response rating, Galium","[5]; Rate 62 g/ha, 0 to 100 scale",0
same,"Plant response rating, Galium","[5]; Rate 125 g/ha, 0 to 100 scale",10
same,"Plant response rating, Galium",[5]; [16],50
same,"Plant response rating, Sunflower","[6]; Rate 62 g/ha, 0 to 100 scale",20
same,"Plant response rating, Sunflower","[6]; Rate 125 g/ha, 0 to 100 scale",30
same,"Plant response rating, Sunflower",[6]; [16],35
same,"Plant response rating, Downy brome",[7]; [14],30
same,"Plant response rating, Downy brome",[7]; [15],30
same,"Plant response rating, Downy brome","[7]; Rate 250 g/ha, 0 to 100 scale",70
same,"Plant response rating, Windgrass",[8]; [14],100
same,"Plant response rating, Windgrass",[8]; [15],100
same,"Plant response rating, Deadnettle",[9]; [14],10
same,"Plant response rating, Deadnettle",[9]; [15],10
same,"Plant response rating, Deadnettle","[9]; Rate 250 g/ha, 0 to 100 scale",40
same,"Plant response rating, Scentless chamo","[10]; Rate 62 g/ha, 0 to 100 scale",10
same,"Plant response rating, Scentless chamo","[10]; Rate 125 g/ha, 0 to 100 scale",0
same,"Plant response rating, Scentless chamo",[10]; [16],10
same,"Plant response rating, Deadnettle","[11]; Rate 62 g/ha, 0 to 100 scale",10
same,"Plant response rating, Deadnettle","[11]; Rate 125 g/ha, 0 to 100 scale",20
same,"Plant response rating, Deadnettle",[11]; [16],30
CC(C)Cn1c(=O)on(C(=O)N(c2ccc(F)cc2)C(C)C)c1=O [Compound 169],"Plant response rating, C. purslane",[12]; [17],0
same,Guineagrass plant response rating,[13]; [17],0
same,"Plant response rating, Guineagrass",[13]; [17],100
CC(C)N(C(=O)n1oc(=O)n(C2CC2)c1=O)c1ccc(Cl)cc1 [Compound 241],"Plant response rating, C. purslane",[12]; [18],0
same,"Plant response rating, C. purslane",[12]; [19],0
same,"Plant response rating, C. purslane",[12]; [17],0
same,"Plant response rating, C. purslane",[12]; [20],0
same,"Plant response rating, C. purslane",[12]; Rate 250 g/ha,0
same,"Plant response rating, Guineagrass",[13]; [18],0
same,"Plant response rating, Guineagrass",[13]; [19],0
same,Guineagrass plant response rating,[13]; [17],100
same,"Plant response rating, Guineagrass",[13]; [17],80
same,"Plant response rating, Guineagrass",[13]; [20],100
same,"Plant response rating, Guineagrass",[13]; Rate 250 g/ha,100
CC(C)N(C(=O)n1oc(=O)n(C2CCC2)c1=O)c1ccccc1 [Compound 348],"Plant response rating, C. purslane",[12]; [18],0
same,"Plant response rating, C. purslane",[12]; [19],0
same,"Plant response rating, C. purslane",[12]; [17],0
same,"Plant response rating, C. purslane",[12]; [20],0
same,"Plant response rating, C. purslane",[12]; Rate 250 g/ha,0
same,"Plant response rating, Guineagrass",[13]; [18],0
same,"Plant response rating, Guineagrass",[13]; [19],0
same,"Plant response rating, Guineagrass",[13]; [17],0
same,"Plant response rating, Guineagrass",[13]; [20],100
same,"Plant response rating, Guineagrass",[13]; Rate 250 g/ha,80
CC(C)N(C(=O)n1oc(=O)n(C2CCC2)c1=O)c1ccc(Cl)cc1 [Compound 349],"Plant response rating, C. purslane",[12]; [18],0
same,"Plant response rating, C. purslane",[12]; [19],0
same,"Plant response rating, C. purslane",[12]; [17],0
same,"Plant response rating, C. purslane",[12]; [20],0
same,"Plant response rating, C. purslane",[12]; Rate 250 g/ha,0
same,"Plant response rating, Guineagrass",[13]; [18],0
same,"Plant response rating, Guineagrass",[13]; [19],0
same,Guineagrass plant response rating,[13]; [17],0
same,"Plant response rating, Guineagrass",[13]; [17],20
same,"Plant response rating, Guineagrass",[13]; [20],0
same,"Plant response rating, Guineagrass",[13]; Rate 250 g/ha,40
